Laboratory results as given in US20150218212A1, “FLUORINATED EPOXYKETONE-BASED TETRAPEPTIDE COMPOUNDS AND USES THEREOF AS PROTEASOME INHIBITORS” (FLUORINOV PHARMA INC., priority 2012, published 2015).

Legend:
Type in all cases: cell-based, human
[1] = test system: BT-549; experiment: NCI screening panel, BT-549 (Breast Cancer)
Method: (§1) Representative compounds of Formula I were screened using the National Cancer Institute (NCI) screening panel, which consists of a panel of human tumor cell lines, representing leukemia, melanoma, and cancers of the lung, colon, ovary, breast, prostate and renal system.
(§2) After 24 h, two plates of each cell line are fixed in situ with TCA, to represent a measurement of the cell population for each cell line at the time of drug addition (Tz). Experimental drugs are solubilised in dimethyl sulfoxide at 400-fold the desired final maximum test concentration and stored frozen prior to use. At the time of drug addition, an aliquot of frozen concentrate is thawed and diluted to twice the desired final maximum test concentration with complete medium containing 50 μg/mL gentamicin. Additional four, 10-fold or ½ log serial dilutions are made to provide a total of five drug concentrations plus control. Aliquots of 100 μl of these different drug dilutions are added to the appropriate microtiter wells already containing 100 μl of medium, resulting in the required final drug concentrations.
(§3) Following drug addition, the plates are incubated for an additional 48 h at 37° C., 5% CO2, 95% air, and 100% relative humidity. For adherent cells, the assay is terminated by the addition of cold TCA (trichloroacetic acid). Cells are fixed in situ by the gentle addition of 50 μl of cold 50% (w/v) TCA (final concentration, 10% TCA) and incubated for 60 minutes at 4° C. The supernatant is discarded, and the plates are washed five times with tap water and air dried. Sulforhodamine B (SRB) solution (100 μl) at 0.4% (w/v) in 1% acetic acid is added to each well, and plates are incubated for 10 minutes at room temperature. After staining, unbound dye is removed by washing five times with 1% acetic acid and the plates are air dried. Bound stain is subsequently solubilised with 10 mM trizma base, and the absorbance is read on an automated plate reader at a wavelength of 515 nm. For suspension cells, the methodology is the same except that the assay is terminated by fixing settled cells at the bottom of the wells by gently adding 50 μl of 80% TCA (final concentration, 16% TCA). Using the seven absorbance measurements [time zero, (Tz), control growth, (C), and test growth in the presence of drug at the five concentration levels (Ti)], the percentage growth is calculated at each of the drug concentrations levels. Percentage growth inhibition is calculated as: [(Ti−Tz)/(C−Tz)]×100 for concentrations for which Ti>/=Tz and [(Ti−Tz)/Tz]×100 for concentrations for which Ti<Tz.
(§4) Three dose response parameters are calculated for each experimental agent. Growth inhibition of 50% (GI50) is calculated from [(Ti−Tz)/(C−Tz)]×100=50, which is the drug concentration resulting in a 50% reduction in the net protein increase (as measured by SRB staining) in control cells during the drug incubation. The drug concentration resulting in total growth inhibition (TGI) is calculated from Ti=Tz. The LC50 (concentration of drug resulting in a 50% reduction in the measured protein at the end of the drug treatment as compared to that at the beginning) indicating a net loss of cells following treatment is calculated from [(Ti−Tz)/Tz]×100=−50. Values are calculated for each of these three parameters if the level of activity is reached. However, if the effect is not reached or is exceeded, the value for that parameter is expressed as greater or less than the maximum or minimum concentration tested.

[2] = test system: SNB-75; experiment: NCI screening panel, SNB-75 (CNS Cancer)
Method: as §1, §2, §3, §4

[3] = test system: PC-3; experiment: NCI screening panel, PC-3 (Prostate Cancer)
Method: as §1, §2, §3, §4

[4] = test system: IGROV1; experiment: NCI screening panel, IGROV1 (Ovarian Cancer)
Method: as §1, §2, §3, §4

[5] = test system: A549/ATCC; experiment: NCI screening panel, A549/ATCC (Non-Small Cell Lung Cancer)
Method: as §1, §2, §3, §4

[6] = test system: A498; experiment: NCI screening panel, A498 (Renal Cancer)
Method: as §1, §2, §3, §4

[7] = test system: MOLT-4; experiment: NCI screening panel, MOLT-4 (Leukemia)
Method: as §1, §2, §3, §4

[8] = test system: SK-MEL-28; experiment: NCI screening panel, SK-MEL-28 (Melanoma)
Method: as §1, §2, §3, §4

[9] = test system: OVCAR-8; experiment: NCI screening panel, OVCAR-8 (Ovarian Cancer)
Method: as §1, §2, §3, §4

[10] = test system: HCT-116; experiment: NCI screening panel, HCT-116 (Colon Cancer)
Method: as §1, §2, §3, §4

[11] = test system: HT29; experiment: NCI screening panel, HT29 (Colon Cancer)
Method: as §1, §2, §3, §4

[12] = test system: SW-620; experiment: NCI screening panel, SW-620 (Colon Cancer)
Method: as §1, §2, §3, §4

[13] = test system: SN12C; experiment: NCI screening panel, SN12C (Renal Cancer)
Method: as §1, §2, §3, §4

[14] = test system: RXF 393; experiment: NCI screening panel, RXF 393 (Renal Cancer)
Method: as §1, §2, §3, §4

[15] = test system: SK-OV-3; experiment: NCI screening panel, SK-OV-3 (Ovarian Cancer)
Method: as §1, §2, §3, §4

Compound: CC(C)C[C@H](NC(=O)[C@H](COC(F)F)NC(=O)CN1CCOCC1)C(=O)N[C@@H](COC(F)F)C(=O)N[C@@H](Cc1ccccc1)C(=O)[C@@]1(C)CO1 [Example 4, (2S)-N-[(1S)-2-[[(1S)-1-benzyl-2-[(2R)-2-methyloxiran-2-yl]-2-oxo-ethyl]amino]-1-(difluoromethoxymethyl)-2-oxo-ethyl]-2-[[(2S)-3-(difluoromethoxy)-2-[(2-mor-pholinoacetyl)amino]propanoyl]amino]-4 methyl-pentanamide]
- Log10GI50 [1]: −7.64
- Log10TGI50 [1]: −6.91
- Log10GI50 [2]: −7.70
- Log10LC50 [2]: −6.25
- Log10TGI50 [2]: −7.25
- Log10GI50 [3]: −7.18
- Log10LC50 [3]: −4.68
- Log10TGI50 [3]: −6.40
- Log10GI50 [4]: −7.33
- Log10LC50 [4]: >−4.00
- Log10TGI50 [4]: −5.57
- Log10GI50 [5]: −7.38
- Log10LC50 [5]: >−4.00
- Log10TGI50 [5]: −4.55
- Log10GI50 [6]: −7.42
- Log10LC50 [6]: −5.65
- Log10TGI50 [6]: −6.61
- Log10GI50 [7]: −7.82
- Log10LC50 [7]: >−4.00
- Log10TGI50 [7]: −7.07
- Log10GI50 [8]: −7.35
- Log10LC50 [8]: −4.79
- Log10TGI50 [8]: −6.62
- Log10GI50 [9]: −6.67
- Log10LC50 [9]: >−4.00
- Log10TGI50 [9]: −5.89
- Log10GI50 [10]: −7.70
- Log10LC50 [10]: −4.57
- Log10TGI50 [10]: −6.98
- Log10GI50 [11]: −7.50
- Log10LC50 [11]: >−4.00
- Log10TGI50 [11]: −5.63
- Log10GI50 [12]: −7.43
- Log10LC50 [12]: −4.40
- Log10TGI50 [12]: −5.98
- Log10GI50 [13]: −7.20
- Log10LC50 [13]: −4.79
- Log10TGI50 [13]: −6.47
- Log10GI50 [14]: −6.83
- Log10LC50 [14]: −6.05
- Log10TGI50 [14]: −6.44
- Log10GI50 [15]: −6.84
- Log10LC50 [15]: >−4.00
- Log10TGI50 [15]: −6.02

Compound: CC(C)C[C@H](NC(=O)[C@H](COC(F)F)NC(=O)[C@H](COC(F)F)NC(=O)[C@H](CCc1ccccc1)NC(=O)CN1CCOCC1)C(=O)[C@@]1(C)CO1 [Example 7, (2S)-N-[(1S)-1-(difluoromethoxymethyl)-2-[[(1S)-1-(difluoromethoxymethyl)-2-[[(1S)-3-methyl-1-[(2R)-2-methyloxirane-2-carbo-nyl]butyl]amino]-2-oxo-ethyl]amino]-2-oxo-ethyl]-2-[(2-morpholinoacetyl)amino]-4-phenyl-butanamide]
- Log10GI50 [1]: −7.68
- Log10LC50 [1]: >−4.00
- Log10TGI50 [1]: −7.07
- Log10GI50 [2]: −7.65
- Log10LC50 [2]: −4.01
- Log10TGI50 [2]: −7.16
- Log10GI50 [3]: −7.49
- Log10LC50 [3]: −5.41
- Log10TGI50 [3]: −6.86
- Log10GI50 [4]: −7.49
- Log10LC50 [4]: >−4.00
- Log10TGI50 [4]: −5.55
- Log10GI50 [5]: −7.43
- Log10LC50 [5]: >−4.00
- Log10TGI50 [5]: >−4.00
- Log10GI50 [6]: −7.40
- Log10LC50 [6]: −6.06
- Log10TGI50 [6]: −6.75
- Log10GI50 [7]: −7.71
- Log10LC50 [7]: >−4.00
- Log10TGI50 [7]: −6.85
- Log10GI50 [8]: −7.44
- Log10TGI50 [8]: >−4.00
- Log10GI50 [9]: −6.94
- Log10LC50 [9]: >−4.00
- Log10TGI50 [9]: −5.93
- Log10GI50 [10]: <−8.00
- Log10LC50 [10]: >−4.00
- Log10TGI50 [10]: −6.78
- Log10GI50 [11]: <−8.00
- Log10LC50 [11]: >−4.00
- Log10TGI50 [11]: −4.93
- Log10GI50 [12]: −7.61
- Log10LC50 [12]: >−4.00
- Log10TGI50 [12]: −5.63
- Log10GI50 [13]: −7.46
- Log10LC50 [13]: −5.85
- Log10TGI50 [13]: −6.77
- Log10GI50 [14]: −6.93
- Log10LC50 [14]: −6.22
- Log10TGI50 [14]: −6.57
- Log10GI50 [15]: −6.94
- Log10LC50 [15]: >−4.00
- Log10TGI50 [15]: −5.46

Compound: CC(C)C[C@H](NC(=O)[C@H](Cc1ccccc1)NC(=O)[C@H](COC(F)F)NC(=O)[C@H](COC(F)F)NC(=O)CN1CCOCC1)C(=O)[C@@]1(C)CO1 [Example 11, (2S)-2-[[(2S)-3-(difluoromethoxy)-2-[[(2S)-3-(difluoromethoxy)-2-[(2-morpholinoacetyl)-amino]propanoyl]amino]propanoyl]amino]-N-[(1S)-3-methyl-1-[(2R)-2-methyloxirane-2-carbonyl]butyl]-3-phenyl-propanamide]
- Log10GI50 [1]: −7.76
- Log10LC50 [1]: >−4.00
- Log10TGI50 [1]: −7.06
- Log10GI50 [2]: −7.62
- Log10LC50 [2]: >−4.00
- Log10TGI50 [2]: −7.15
- Log10GI50 [3]: −7.32
- Log10LC50 [3]: >−4.00
- Log10TGI50 [3]: −6.51
- Log10GI50 [4]: −7.38
- Log10LC50 [4]: >−4.00
- Log10TGI50 [4]: −4.36
- Log10GI50 [5]: −7.40
- Log10TGI50 [5]: >−4.00
- Log10GI50 [6]: −7.64
- Log10LC50 [6]: −6.08
- Log10TGI50 [6]: −7.00
- Log10GI50 [7]: <−8.00
- Log10LC50 [7]: >−4.00
- Log10TGI50 [7]: −6.83
- Log10GI50 [8]: −7.20
- Log10LC50 [8]: >−4.00
- Log10TGI50 [8]: −5.55
- Log10GI50 [9]: −6.94
- Log10LC50 [9]: >−4.00
- Log10TGI50 [9]: >−4.00
- Log10GI50 [10]: <−8.00
- Log10LC50 [10]: −4.54
- Log10TGI50 [10]: −7.06
- Log10GI50 [11]: −7.70
- Log10LC50 [11]: >−4.00
- Log10TGI50 [11]: −5.91
- Log10GI50 [12]: −7.63
- Log10LC50 [12]: >−4.00
- Log10TGI50 [12]: −5.97
- Log10GI50 [13]: −7.20
- Log10LC50 [13]: −5.39
- Log10TGI50 [13]: −6.50
- Log10GI50 [14]: −6.98
- Log10LC50 [14]: −6.23
- Log10TGI50 [14]: −6.60
- Log10GI50 [15]: −6.85
- Log10LC50 [15]: >−4.00
- Log10TGI50 [15]: −4.84
